Experiments:
Format in all cases: cell-based
E. coli DH5α = assay: Antibacterial activity: MIC and growth curve against E. coli DH5α in 96-well plate; conditions: minimal inhibitory concentration against E. coli DH5α; 96-well plate, 5×10^5 CFU/mL, 37° C., judged after 8 h
Outline: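 Log-phase bacteria (OD600 ~0.5) resuspended in LB at 5×10^5 CFU/mL, exposed to recombinant protein at 50, 25, 12.5 μg/mL final in triplicate, 37 °C shaking at 175 rpm. OD600 read every 30 min; MIC is lowest concentration showing no growth.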

E. coli BL21 = assay: MIC against Gram-negative bacteria: E. coli BL21; conditions: for MIC / MIC against E. coli BL21 / MIC (μg/mL) E. coli BL21: E. coli BL21
Outline: (§1)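 Antibacterial activity of purified human EGF domain proteins: two-fold concentration series, triplicate wells, LB broth, 5×10^5 CFU/mL bacteria, 37° C shaking incubation. The lowest concentration without growth defines the MIC.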

Pseudomonas aeruginosa = assay: MIC against Gram-negative bacteria: Pseudomonas aeruginosa
Outline: as §1

Klebsiella pneumonia = assay: MIC against Gram-negative bacteria: Klebsiella pneumonia
Outline: as §1

Enterobacter cloacae = assay: MIC against Gram-negative bacteria: Enterobacter cloacae
Outline: as §1

Aeromonas hydrophila = assay: MIC against Gram-negative bacteria: Aeromonas hydrophila
Outline: as §1

Citrobacter diversus = assay: MIC against Gram-negative bacteria: Citrobacter diversus
Outline: as §1

Moraxella catarrhalis = assay: MIC against Gram-negative bacteria: Moraxella catarrhalis
Outline: as §1

Proteus mirabilis = assay: MIC against Gram-negative bacteria: Proteus mirabilis
Outline: as §1

Proteus vulgaris = assay: MIC against Gram-negative bacteria: Proteus vulgaris
Outline: as §1

Serratia marcescens = assay: MIC against Gram-negative bacteria: Serratia marcescens
Outline: as §1

[1] = 10 h cultivation at 37° C., 5×10^5 CFU/mL
[2] = P. aeruginosa, 10 h cultivation at 37° C., 5×10^5 CFU/mL
[3] = K. pneumonia, 10 h cultivation at 37° C., 5×10^5 CFU/mL
[4] = E. cloacae, 10 h cultivation at 37° C., 5×10^5 CFU/mL
[5] = A. hydrophila, 10 h cultivation at 37° C., 5×10^5 CFU/mL
[6] = C. diversus, 10 h cultivation at 37° C., 5×10^5 CFU/mL
[7] = M. catarrhalis, 10 h cultivation at 37° C., 5×10^5 CFU/mL
[8] = P. mirabilis, 10 h cultivation at 37° C., 5×10^5 CFU/mL
[9] = P. vulgaris, 10 h cultivation at 37° C., 5×10^5 CFU/mL
[10] = S. marcescens, 10 h cultivation at 37° C., 5×10^5 CFU/mL
[11] = 96-well plate, 5×10^5 CFU/mL, 37° C., 10 h
[12] = Pseudomonas aeruginosa, 96-well plate, 5×10^5 CFU/mL, 37° C., 10 h
[13] = Klebsiella pneumonia, 96-well plate, 5×10^5 CFU/mL, 37° C., 10 h
[14] = Enterobacter cloacae, 96-well plate, 5×10^5 CFU/mL, 37° C., 10 h
[15] = Aeromonas hydrophila, 96-well plate, 5×10^5 CFU/mL, 37° C., 10 h
[16] = Citrobacter diversus, 96-well plate, 5×10^5 CFU/mL, 37° C., 10 h
[17] = Moraxella catarrhalis, 96-well plate, 5×10^5 CFU/mL, 37° C., 10 h
[18] = Proteus mirabilis, 96-well plate, 5×10^5 CFU/mL, 37° C., 10 h
[19] = Proteus vulgaris, 96-well plate, 5×10^5 CFU/mL, 37° C., 10 h
[20] = Serratia marcescens, 96-well plate, 5×10^5 CFU/mL, 37° C., 10 h
[21] = P. aeruginosa, 10 h cultivation at 37° C.
[22] = K. pneumonia, 10 h cultivation at 37° C.
[23] = E. cloacae, 10 h cultivation at 37° C.
[24] = A. hydrophila, 10 h cultivation at 37° C.
[25] = C. diversus, 10 h cultivation at 37° C.
[26] = M. catarrhalis, 10 h cultivation at 37° C.
[27] = P. mirabilis, 10 h cultivation at 37° C.
[28] = P. vulgaris, 10 h cultivation at 37° C.
[29] = S. marcescens, 10 h cultivation at 37° C.
[30] = 10 h cultivation at 37° C., 5×10^5 CFU/mL, two-fold serial dilution

PRT422 (DVDECALGTHNCSEAETCHNIQGSFRCLRFECPPNYVQVSKTKCE; listed as Homo sapiens)
MIC (E. coli DH5α): 12.5 µg/mL | MIC (E. coli BL21; [1]): 25 µg/mL | MIC (Pseudomonas aeruginosa; [2]): 12.5 µg/mL | MIC (Klebsiella pneumonia; [3]): 25 µg/mL | MIC (Enterobacter cloacae; [4]): 12.5 µg/mL | MIC (Aeromonas hydrophila; [5]): 25 µg/mL | MIC (Citrobacter diversus; [6]): 12.5 µg/mL | MIC (Moraxella catarrhalis; [7]): 12.5 µg/mL | MIC (Proteus mirabilis; [8]): 25 µg/mL | MIC (Proteus vulgaris; [9]): 12.5 µg/mL | MIC (Serratia marcescens; [10]): 25 µg/mL

PRT688 (DVDECQLFRDQVCKSGVCVNTAPGYSCYCSNGYYYHTQRLECI; listed as Homo sapiens)
MIC (E. coli DH5α): 25 µg/mL | MIC E. coli BL21 (E. coli BL21; [11]): 12.5 µg/mL | MIC P. aeruginosa (Pseudomonas aeruginosa; [11]): 25 µg/mL | MIC K. pneumonia (Klebsiella pneumonia; [11]): 50 µg/mL | MIC E. cloacae (Enterobacter cloacae; [11]): 12.5 µg/mL | MIC A. hydrophila (Aeromonas hydrophila; [11]): 25 µg/mL | MIC C. diversus (Citrobacter diversus; [11]): 50 µg/mL | MIC M. catarrhalis (Moraxella catarrhalis; [11]): 12.5 µg/mL | MIC P. mirabilis (Proteus mirabilis; [11]): 50 µg/mL | MIC P. vulgaris (Proteus vulgaris; [11]): 100 µg/mL | MIC S. marcescens (Serratia marcescens; [11]): 50 µg/mL

PRT1270 (DVDECSLDRTCDHSCINHPGTFACACNRGYTLYGFTHCG; listed as Homo sapiens)
MIC (E. coli DH5α): 50 µg/mL | MIC against E. coli BL21 (E. coli BL21; [11]): 12.5 µg/mL | MIC against P. aeruginosa (Pseudomonas aeruginosa; [12]): 50 µg/mL | MIC against K. pneumonia (Klebsiella pneumonia; [13]): 12.5 µg/mL | MIC against E. cloacae (Enterobacter cloacae; [14]): 50 µg/mL | MIC against A. hydrophila (Aeromonas hydrophila; [15]): 25 µg/mL | MIC against C. diversus (Citrobacter diversus; [16]): 12.5 µg/mL | MIC against M. catarrhalis (Moraxella catarrhalis; [17]): 25 µg/mL | MIC against P. mirabilis (Proteus mirabilis; [18]): 50 µg/mL | MIC against P. vulgaris (Proteus vulgaris; [19]): 25 µg/mL | MIC against S. marcescens (Serratia marcescens; [20]): 12.5 µg/mL

PRT2 (DQLICVNENGGCEQYCSDHTGTKRSCRCHEGYSLLADGVSCT; listed as Homo sapiens)
MIC (E. coli DH5α): 25 µg/mL | MIC (μg/mL) E. coli BL21 (E. coli BL21; [11]): 50 µg/mL | MIC (μg/mL) P. aeruginosa (Pseudomonas aeruginosa; [12]): 50 µg/mL | MIC (μg/mL) K. pneumonia (Klebsiella pneumonia; [13]): 50 µg/mL | MIC (μg/mL) E. cloacae (Enterobacter cloacae; [14]): 25 µg/mL | MIC (μg/mL) A. hydrophila (Aeromonas hydrophila; [15]): 25 µg/mL | MIC (μg/mL) C. diversus (Citrobacter diversus; [16]): 25 µg/mL | MIC (μg/mL) M. catarrhalis (Moraxella catarrhalis; [17]): 12.5 µg/mL | MIC (μg/mL) P. mirabilis (Proteus mirabilis; [18]): 25 µg/mL | MIC (μg/mL) P. vulgaris (Proteus vulgaris; [19]): 12.5 µg/mL | MIC (μg/mL) S. marcescens (Serratia marcescens; [20]): 12.5 µg/mL

PRT247 (GAAICQPPCRNGGSCVQPGRCRCPAGWRGDTCQ; listed as Homo sapiens)
MIC (E. coli DH5α): 12.5 µg/mL | MIC (μg/mL) E. coli BL21 (E. coli BL21; [1]): 12.5 µg/mL | MIC (μg/mL) P. aeruginosa (Pseudomonas aeruginosa; [2]): 12.5 µg/mL | MIC (μg/mL) K. pneumonia (Klebsiella pneumonia; [3]): 12.5 µg/mL | MIC (μg/mL) E. cloacae (Enterobacter cloacae; [4]): 25 µg/mL | MIC (μg/mL) A. hydrophila (Aeromonas hydrophila; [5]): 12.5 µg/mL | MIC (μg/mL) C. diversus (Citrobacter diversus; [6]): 25 µg/mL | MIC (μg/mL) M. catarrhalis (Moraxella catarrhalis; [7]): 100 µg/mL | MIC (μg/mL) P. mirabilis (Proteus mirabilis; [8]): 25 µg/mL | MIC (μg/mL) P. vulgaris (Proteus vulgaris; [9]): 12.5 µg/mL | MIC (μg/mL) S. marcescens (Serratia marcescens; [10]): 25 µg/mL

PRT915 (ASSPCLGGNPCYNQGTCEPTSESPFYRCLCPAKFNGLLCH; listed as Homo sapiens)
MIC (E. coli DH5α): 25 µg/mL | MIC (E. coli BL21; 10 h cultivation at 37° C.): 25 µg/mL | MIC (Pseudomonas aeruginosa; [21]): 50 µg/mL | MIC (Klebsiella pneumonia; [22]): 25 µg/mL | MIC (Enterobacter cloacae; [23]): 12.5 µg/mL | MIC (Aeromonas hydrophila; [24]): 25 µg/mL | MIC (Citrobacter diversus; [25]): 25 µg/mL | MIC (Moraxella catarrhalis; [26]): 50 µg/mL | MIC (Proteus mirabilis; [27]): 25 µg/mL | MIC (Proteus vulgaris; [28]): 25 µg/mL | MIC (Serratia marcescens; [29]): 25 µg/mL

PRT1395 (DCPRNCHGNGECVSGVCHCFPGFLGADCA; listed as Homo sapiens)
MIC (E. coli DH5α): 12.5 µg/mL | MIC against E. coli BL21 (E. coli BL21; 5×10^5 CFU/mL, 10 h cultivation at 37° C.): 25 µg/mL | MIC against P. aeruginosa (Pseudomonas aeruginosa; Pseudomonas aeruginosa, 5×10^5 CFU/mL, 10 h cultivation at 37° C.): 12.5 µg/mL | MIC against K. pneumonia (Klebsiella pneumonia; Klebsiella pneumonia, 5×10^5 CFU/mL, 10 h cultivation at 37° C.): 25 µg/mL | MIC against E. cloacae (Enterobacter cloacae; Enterobacter cloacae, 5×10^5 CFU/mL, 10 h cultivation at 37° C.): 12.5 µg/mL | MIC against A. hydrophila (Aeromonas hydrophila; Aeromonas hydrophila, 5×10^5 CFU/mL, 10 h cultivation at 37° C.): 100 µg/mL | MIC against C. diversus (Citrobacter diversus; Citrobacter diversus, 5×10^5 CFU/mL, 10 h cultivation at 37° C.): 12.5 µg/mL | MIC against M. catarrhalis (Moraxella catarrhalis; Moraxella catarrhalis, 5×10^5 CFU/mL, 10 h cultivation at 37° C.): 12.5 µg/mL | MIC against P. mirabilis (Proteus mirabilis; Proteus mirabilis, 5×10^5 CFU/mL, 10 h cultivation at 37° C.): 12.5 µg/mL | MIC against P. vulgaris (Proteus vulgaris; Proteus vulgaris, 5×10^5 CFU/mL, 10 h cultivation at 37° C.): 12.5 µg/mL | MIC against S. marcescens (Serratia marcescens; Serratia marcescens, 5×10^5 CFU/mL, 10 h cultivation at 37° C.): 25 µg/mL

PRT1042 (SGFFCPSTHSCQNGGVFQTPQGSCSCPPGWMGTICS; listed as Homo sapiens)
MIC (E. coli DH5α): 25 µg/mL | MIC (E. coli BL21; 10 h cultivation at 37° C.): 50 µg/mL | MIC (Pseudomonas aeruginosa; [21]): 12.5 µg/mL | MIC (Klebsiella pneumonia; [22]): 25 µg/mL | MIC (Enterobacter cloacae; [23]): 50 µg/mL | MIC (Aeromonas hydrophila; [24]): 50 µg/mL | MIC (Citrobacter diversus; [25]): 50 µg/mL | MIC (Moraxella catarrhalis; [26]): 12.5 µg/mL | MIC (Proteus mirabilis; [27]): 50 µg/mL | MIC (Proteus vulgaris; [28]): 25 µg/mL | MIC (Serratia marcescens; [29]): 50 µg/mL

PRT1059 (SDSECPLSHDGYCLHDGVCMYIEALDKYACNCVVGYIGERCQ; listed as Homo sapiens)
MIC (E. coli DH5α): 50 µg/mL | MIC E. coli BL21 (E. coli BL21; [30]): 12.5 µg/mL | MIC P. aeruginosa (Pseudomonas aeruginosa; [30]): 50 µg/mL | MIC K. pneumonia (Klebsiella pneumonia; [30]): 12.5 µg/mL | MIC E. cloacae (Enterobacter cloacae; [30]): 25 µg/mL | MIC A. hydrophila (Aeromonas hydrophila; [30]): 25 µg/mL | MIC C. diversus (Citrobacter diversus; [30]): 50 µg/mL | MIC M. catarrhalis (Moraxella catarrhalis; [30]): 12.5 µg/mL | MIC P. mirabilis (Proteus mirabilis; [30]): 12.5 µg/mL | MIC P. vulgaris (Proteus vulgaris; [30]): 25 µg/mL | MIC S. marcescens (Serratia marcescens; [30]): 12.5 µg/mL

PRT823 (FGEACAQRCSCPPGAACHHVTGACRCPPGFTGSGCE; listed as Homo sapiens)
MIC (E. coli DH5α): 25 µg/mL | MIC (μg/mL) E. coli BL21 (E. coli BL21; [1]): 12.5 µg/mL | MIC (μg/mL) P. aeruginosa (Pseudomonas aeruginosa; [2]): 25 µg/mL | MIC (μg/mL) K. pneumonia (Klebsiella pneumonia; [3]): 12.5 µg/mL | MIC (μg/mL) E. cloacae (Enterobacter cloacae; [4]): 25 µg/mL | MIC (μg/mL) A. hydrophila (Aeromonas hydrophila; [5]): 12.5 µg/mL | MIC (μg/mL) C. diversus (Citrobacter diversus; [6]): 25 µg/mL | MIC (μg/mL) M. catarrhalis (Moraxella catarrhalis; [7]): 50 µg/mL | MIC (μg/mL) P. mirabilis (Proteus mirabilis; [8]): 25 µg/mL | MIC (μg/mL) P. vulgaris (Proteus vulgaris; [9]): 12.5 µg/mL | MIC (μg/mL) S. marcescens (Serratia marcescens; [10]): 50 µg/mL
